Several values for one entry are separate records, joined by “and”; a condition that tells them apart may be missing. Equal values may be shown once. Where a name gives a salt, the structure may show the parent alone. Read-outs that look alike come from different tables or passages of the source. One block for each compound: values may come before it.
Legend:
cathepsin D = target: T1, cathepsin D (Homo sapiens, UniProt P07339); assay: Cathepsin D Inhibition Assay (non-cellular); type: biochemical
T1 construct: Human brain cathepsin D was purified from frozen post-mortem cortex; from tissue; host or cells: human tissue: brain cortex (Assay 1), liver (Assay 2, bought from Athens Research and Technology) or placenta (Assay 3); the results are not tied to one of them
Excerpt: First, test compounds which inhibit exemplary aspartyl proteases, particularly cathepsin D, are identified as aspartyl protease inhibitors. As used herein, the term "test system" refers to an assay that is designed to measure aspartyl protease inhibitory activity. A typical test system used for such identification is a non-cellular assay where turnover of the protease substrate is monitored upon the administering of a protease inhibitor. The turnover of the protease […] is then compared to the turnover of substrate in a control test system in which no such aspartyl protease inhibitor has been administered. As used herein, the term "control test system" refers to an identical test system that is run side-by-side with the test system with the exception no aspartyl protease inhibitor is administered. This non-cellular assay is used to identify those test compounds having suitable aspartyl protease inhibitory activity in a non-cellular environment. An example of a non-cellular assay that may be used to determine in vitro aspartyl protease inhibitory activity reacts partially purified human brain cathepsin D with a substrate, e.g., porcine renin tetradecapeptide. The resultant reaction mixture is divided into portions and each portion is incubated for a different period of time. After the reaction is stopped, the turnover of substrate in each portion is determined using reverse-phase high performance liquid chromatography (HPLC). Protease inhibition activity may be calculated based on the rates of substrate turnover. This assay is exemplified in Assay 1, below. A second non-cellular assay for determining in vitro aspartyl protease inhibitory activity utilizes a microtiter plate, where a suitable aspartyl protease, such as a cathepsin D is added to each well together with controls. A suitable fluorometric substrate is added to each well. The resultant reaction mixture is allowed to react for a preselected time, e.g., 30 minutes. After enzyme activity is terminated, the substrate or its product may be determined fluorometrically and then the protease inhibition activity may be calculated based on the rates of substrate turnover. This assay is exemplified in Assay 2, below. CATHEPSIN D INHIBITION ACTIVITY (NON-CELLULAR ASSAY) Human brain cathepsin D was purified from frozen post-mortem cortex substantially in accordance with the method of Nixon and Morotta, (1984) J. Neurochem. 43:507-516. The cortex material was prepared and applied to a DEAE-Sepharose® column. The flow through fraction was dialyzed against 50 mM Tris-HCl, pH 7.5, and applied to concanavalin A Sepharose® and eluted with 50 mM Tris, pH 7.5, 0.5M methyl α-D-mannopyranoside. The eluted cathepsin D activity was dialyzed against 25 mM Tris, pH 7.5, and stored at -40° C. (Con A pool) until use. […] The substrate, a porcine renin tetradecapeptide,was added to each reaction mixture to yield a final concentration of 44 μM in a total volume of 300 μl. The samples were incubated at 37° C. for 0, 10, 20, or 30 minutes, and then boiled for 5 minutes to stop the reaction. The samples were centrifuged in a microcentrifuge for 10 minutes at 14,000 rpm at 4° C. After centrifugation, 200 μL of each reaction was injected onto a C18 reverse phase liquid chromatography column (Vydac, Hesperia, Calif.) with a Perkin Elmer ISS 100 autosampler and eluted with a gradient of 0-50% CH3 CN in 0.1% CF3 CO2 H at 2 ml/min. Peptide product peaks were monitored at 220 nm with a Perkin Elmer LC 95 detector and integrated with Rainin Dynamax software in order to quantitate activity. CATHEPSIN D INHIBITION ACTIVITY (NON-CELLULAR FLUOROMETIC ASSAY) A fluorometric assay was adapted from the method disclosed by Murakami et al., (1981) Anal. Biochem. 110:232-239 for measuring renin activity. […] Compound stocks were prepared by dissolving an aspartyl protease inhibitor in DMSO for each concentration tested in the assay and then 5 μL of compound stock was added to each of the wells prepared above. […]

[1] = tested on: β-amyloid peptide production in 293 751 SWE and CHO 751 SWE cells; assay: β-Amyloid Peptide Production Inhibition Activity In Cells (cellular assay, ELISA normalised to MTT); type: cell-based; conditions: for inhibition at 10 µg/mL: read-out: Percent Inhibition (β-amyloid peptide production)
Procedure: β-AMYLOID PEPTIDE […] (CELLULAR ASSAY)
Two cell lines (human kidney cell line 293 and Chinese hamster ovary cell line CHO) were stably transfected with the gene for APP751 containing the double mutation Lys651 -Met652 to Asn651 -Leu652 (APP-751 numbering) commonly called the Swedish mutation using the method described in Citron, et al., Nature 360:672-674 (1992). The transfected cell lines were designated as 293 751 SWE and CHO 751 SWE, and were plated in Corning 96 well plates at 2.5×10^4 or 1×10^4 cells per well respectively in Dulbecco's minimal essential media (DMEM) plus 10% fetal bovine serum. Following overnight incubation at 37° C. in an incubator equilibrated with 10% carbon dioxide (CO2), the media were removed and replaced with 200 μl per well of media containing an aspartyl protease inhibitor. After a two hour pretreatment period, the media were again removed and replaced with fresh media containing the aspartyl protease inhibitor and the cells were incubated for an additional two hours.
After treatment, plates were centrifuged at 1200 rpm for five minutes at room temperature to pellet cellular debris from the conditioned media. From each well, 100 μl of conditioned media were transferred into an ELISA plate precoated with antibody 266 against β-amyloid peptide(13-28) (Seubert et al., supra. ) and stored at 4° C. overnight. An ELISA assay employing labelled antibody 6C6 (against β-amyloid peptide-1-16) was run the next day to measure the amount of β-amyloid peptide produced.
Cytotoxic effects of the compounds were measured by a modification of the method of Hansen et al., (1989) J. Immun. Meth. 119:203-210. To the cells remaining in the tissue culture plate, was added 25 μl of a 3-(4,5-dimethylthiazol-2-yl)2,5-diphenyltetrazolium bromide (MTT) stock solution (5 mg/ml) to a final concentration of […]. Cells were incubated at 37° C. for one hour, and cellular activity was stopped by the addition of an equal volume of MTT lysis buffer (20% w/v sodium dodecylsulfate in 50% DMF, pH 4.7). Complete extraction was achieved by overnight shaking at room temperature. The difference in the OD562nm and the OD650nm was measured in a Uvmax microplate reader as an indicator of the cellular viability.
The results of the β-amyloid peptide ELISA were fit to a standard curve and expressed as ng/ml β-amyloid peptide. In order to normalize for cytotoxicity, these β-amyloid peptide results were divided by the MTT results and expressed as a percentage of the results from a drug-free control.

[2] = 10.0 μg/ml, read-out: Percent Inhibition (cathepsin D)

T1 sequence (P07339 169-412 limits assumed): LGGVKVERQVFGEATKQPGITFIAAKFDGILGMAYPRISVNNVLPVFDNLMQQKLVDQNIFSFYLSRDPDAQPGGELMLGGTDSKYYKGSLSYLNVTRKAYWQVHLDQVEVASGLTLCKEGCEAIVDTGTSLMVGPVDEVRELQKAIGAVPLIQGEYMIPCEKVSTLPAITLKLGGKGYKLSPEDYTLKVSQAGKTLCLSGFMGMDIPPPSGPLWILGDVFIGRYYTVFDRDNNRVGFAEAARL
T1 sequence (P07339 65-162 limits assumed): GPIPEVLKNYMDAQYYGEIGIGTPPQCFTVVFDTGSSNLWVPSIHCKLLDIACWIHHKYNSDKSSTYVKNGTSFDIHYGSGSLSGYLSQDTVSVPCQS

Compound: CCCc1c(COc2ccc(C=C3SC(=S)NC3=O)cc2)ccc(C(C)=O)c1OC(C)=O [Example 21, 5-[[4-[(4-acetyl-3-acetoxy-2-propylphenyl)methoxy]phenyl]methylene]-2-thioxo-4-thiazolidinone]
inhibition at 10 µg/mL (cathepsin D; [2]): 25%

Compound: CCCc1c(COc2ccc(C=C3SC(=S)NC3=O)cc2)ccc(C(C)=O)c1O [Example 11, 5-[[4-[(4-acetyl-3-hydroxy-2-propylphenyl)methoxy]phenyl]methylene]-2-thioxo-4-thiazolidinone dilithium salt]
inhibition at 10 µg/mL [1]: 20%

inhibition at 10 µg/mL (cathepsin D; [2]): 38%
Compound: O=C1NC(=S)SC1=Cc1ccc(OCCCc2ccccc2)cc1 [Example 2, 5-[[4-(3-phenylpropoxy)phenyl]methylene]-2-thioxo-4-thiazolidinone]

Compound: 5-[[4-(4-acetyl-3-hydroxy-2-propylphenyl)methoxy]phenyl]methylene]-2-thioxo-4-thiazolidinone sodium salt [Example 14]
Percent Inhibition (β-amyloid peptide production) ([1]; 10.0 μg/ml): 0%

Compound: CCCCc1ccc(Oc2ccc(C=C3SC(=S)NC3=O)cc2)cc1 [Example 15, 5-[[4-(4-butylphenoxy)phenyl]methylene]-2-thioxo-4-thiazolidinone]
inhibition at 10 µg/mL ([1]; 10.0 μg/ml): 14%

inhibition at 10 µg/mL (cathepsin D; [2]): 46%
Compound: CCCc1c(COc2ccc(C=C3SC(=S)N(C)C3=O)cc2)ccc(C(C)=O)c1O [Example 6, 5-[[4-[(4-acetyl-3-hydroxy-2-propylphenyl)methoxy]phenyl]methylene]-3-methyl-2-thioxo-4-thiazolidinone]

inhibition at 10 µg/mL (cathepsin D; [2]): 20%
Compound: CC(=O)c1ccc(COc2ccc(C=C3SC(=S)NC3=O)cc2)cc1 [Example 16, 5-[[4-[(4-acetylphenyl)methoxy]phenyl]-methylene]-2-thioxo-4-thiazolidinone]

inhibition at 10 µg/mL (cathepsin D; [2]): 14%
Compound: CC(C)(C)c1ccc(Oc2cccc(C=C3SC(=S)N(N)C3=O)c2)cc1 [Example 9, 5-[[3-[4-(t-butyl)phenoxy]phenyl]methylene]-3-amino-2-thioxo-4-thiazolidinone]

Compound: 5-[[3-[4-(t-butyl)phenoxy]phenyl]methylene]-3-(N,N-dimethylamino)-2-thioxo-4-thiazolidinone [Example 13]
Percent Inhibition (β-amyloid peptide production) ([1]; 10.0 μg/ml): 25%

Compound: CCCc1c(OCc2ccc(/C=C3\SC(=S)NC3=O)cc2)ccc(C(C)=O)c1O [Example 4, (Z)-5-[[4-[(4-acetyl-3-hydroxy-2-propylphenoxymethyl)]phenyl]methylene]-2-thioxo-4-thiazolidinone]
inhibition at 10 µg/mL ([1]; 10.0 μg/ml): 38%

inhibition at 0.31 µg/mL (cathepsin D; 0.31 μg/ml, read-out: Percent Inhibition (cathepsin D)): 14%
inhibition at 0.62 µg/mL (cathepsin D; 0.62 μg/ml, read-out: Percent Inhibition (cathepsin D)): 19%
Percent Inhibition (cathepsin D) (cathepsin D; 1.25 μg/ml): 21%
inhibition at 1.25 µg/mL (cathepsin D; 1.25 μg/ml, read-out: Percent Inhibition (cathepsin D)): 15%
Percent Inhibition (cathepsin D) (cathepsin D; 2.50 μg/ml): 33%
inhibition at 2.5 µg/mL (cathepsin D; 2.50 μg/ml, read-out: Percent Inhibition (cathepsin D)): 24%
Percent Inhibition (cathepsin D) (cathepsin D; 5.00 μg/ml): 51%
inhibition at 5 µg/mL (cathepsin D; 5.00 μg/ml, read-out: Percent Inhibition (cathepsin D)): 41%
Percent Inhibition (cathepsin D) (cathepsin D; 10.0 μg/ml): 69% and 74%
inhibition at 10 µg/mL (cathepsin D; [2]): 67%
Compound: CC(C)(C)c1ccc(Oc2cccc(C=C3SC(=S)NC3=O)c2)cc1 [Example 19, 5-[[3-[4-(1,1,dimethyleth-1-yl)phenoxy]phenyl]methylene]-2-thioxo-4-thiazolidinone]

Compound: 5-[[4-[(4-acetyl-3-hydroxy-2-propylphenyl)methoxy]phenyl]methylene]-2-thioxo-4-thiazolidinone disodium salt [Example 10]
Percent Inhibition (β-amyloid peptide production) ([1]; 10.0 μg/ml): 41%

From US5747517A, “Benzylidene rhodanines” (Eli Lilly and Company, priority 1996, dated 1998)
